Test results as given in the NIST ThermoML archive (doi:10.1021/je1002237).

Test: xn = mol fraction of the nth substance listed
Conditions: 101 kPa, Liquid

CCOS(=O)(=O)[O-].CCn1cc[n+](C)c1 [1-ethyl-3-methylimidazolium ethyl sulfate] + CO
mass density [kg/m3]
Conditions	278.15 K	283.15 K	288.15 K	293.15 K	298.15 K	303.15 K	308.15 K
x2 = 0	1251.04	1247.5	1244.04	1240.66	1237.27	1233.89	1230.51
x2 = 0.005	1250.51	1246.96	1243.52	1240.13	1236.74	1233.36	1229.98
x2 = 0.0097	1250.12	1246.57	1243.14	1239.75	1236.36	1232.97	1229.59
x2 = 0.015	1249.8	1246.24	1242.81	1239.42	1236.02	1232.63	1229.24
x2 = 0.0252	1248.78	1245.23	1241.82	1238.42	1235.02	1231.63	1228.25
x2 = 0.0403	1247.44	1243.88	1240.48	1237.07	1233.67	1230.27	1226.88
x2 = 0.0598	1245.64	1242.13	1238.72	1235.31	1231.89	1228.49	1225.09
x2 = 0.08	1243.77	1240.29	1236.86	1233.44	1230.02	1226.61	1223.2
x2 = 0.1001	1241.79	1238.35	1234.91	1231.47	1228.05	1224.63	1221.22
x2 = 0.15	1236.8	1233.34	1229.88	1226.42	1222.98	1219.54	1216.12
x2 = 0.2	1231.24	1227.75	1224.26	1220.78	1217.32	1213.87	1210.42
x2 = 0.3	1218.1	1214.56	1211.02	1207.5	1203.99	1200.5	1197.01
x2 = 0.4	1201.9	1198.3	1194.72	1191.15	1187.59	1184.05	1180.51
x2 = 0.4999	1180.84	1177.18	1173.54	1169.91	1166.29	1162.69	1159.1
x2 = 0.6	1153.55	1149.82	1146.1	1142.4	1138.71	1135.03	1131.37
x2 = 0.7	1115.57	1111.73	1107.91	1104.11	1100.31	1096.53	1092.76
x2 = 0.8	1059.76	1055.79	1051.82	1047.87	1043.92	1039.98	1036.05
x2 = 0.9	971.1	966.89	962.68	958.49	954.29	950.1	945.91
x2 = 0.95	902.84	898.44	894.05	889.67	885.26	880.86	876.46
x2 = 0.98	849.24	844.69	840.15	835.63	831.05	826.49	821.91

ClCCl [dichloromethane] + CCOS(=O)(=O)[O-].CCn1cc[n+](C)c1
mass density [kg/m3]
Conditions	278.15 K	283.15 K	288.15 K	293.15 K	298.15 K	303.15 K	308.15 K
x1 = 0.0375	1252.39	1248.82	1245.38	1241.96	1238.55	1235.13	1231.72
x1 = 0.0731	1254.22	1250.64	1247.19	1243.72	1240.27	1236.81	1233.36
x1 = 0.1117	1255.78	1252.22	1248.72	1245.22	1241.73	1238.24	1234.76
x1 = 0.1664	1258.85	1255.31	1251.75	1248.14	1244.63	1241.08	1237.55
x1 = 0.2488	1263.74	1260.06	1256.38	1252.7	1249.03	1245.37	1241.71
x1 = 0.3308	1268.9	1265.09	1261.28	1257.48	1253.69	1249.9	1246.13
x1 = 0.4023	1274.69	1270.74	1266.78	1262.82	1258.9	1254.97	1251.05
x1 = 0.4624	1279.33	1275.26	1271.18	1267.11	1263.05	1259	1254.96
x1 = 0.5776	1290.69	1286.28	1281.87	1277.47	1273.07	1268.69	1264.32
x1 = 0.6593	1299.95	1295.23	1290.51	1285.8	1281.09	1276.39	1271.69
x1 = 0.7684	1315.91	1310.52	1305.14	1299.77	1294.38	1289	1283.61
x1 = 0.8377	1327.28	1321.28	1315.26	1309.25	1303.21	1297.16	1291.11
x1 = 0.8856	1335.58	1328.97	1322.35	1315.72	1309.05	1302.36	1295.65
x1 = 0.9207	1341.3	1334.16	1326.99	1319.81	1312.58	1305.32	1298.03
x1 = 0.9475	1345.71	1338.05	1330.35	1322.64	1314.87	1307.06	1299.21
x1 = 0.9687	1349.06	1340.91	1332.71	1324.48	1316.18	1307.85	1299.46
x1 = 0.9858	1351.32	1342.72	1334.07	1325.38	1316.61	1307.8	1298.92
x1 = 1	1352.84	1343.8	1334.71	1325.58	1316.34	1307.06	1297.69
